Patent publication US20120142705A1, “ISATIN AND OXINDOLE COMPOUNDS” (priority 2010, published 2012)

Target: T1, Recombinant human liver GK1 (GST-GK) (Homo sapiens, UniProt P35557)
T1 construct: made in house; host or cells: E. coli
T1 sequence (P35557 1-466 isoform P35557-2): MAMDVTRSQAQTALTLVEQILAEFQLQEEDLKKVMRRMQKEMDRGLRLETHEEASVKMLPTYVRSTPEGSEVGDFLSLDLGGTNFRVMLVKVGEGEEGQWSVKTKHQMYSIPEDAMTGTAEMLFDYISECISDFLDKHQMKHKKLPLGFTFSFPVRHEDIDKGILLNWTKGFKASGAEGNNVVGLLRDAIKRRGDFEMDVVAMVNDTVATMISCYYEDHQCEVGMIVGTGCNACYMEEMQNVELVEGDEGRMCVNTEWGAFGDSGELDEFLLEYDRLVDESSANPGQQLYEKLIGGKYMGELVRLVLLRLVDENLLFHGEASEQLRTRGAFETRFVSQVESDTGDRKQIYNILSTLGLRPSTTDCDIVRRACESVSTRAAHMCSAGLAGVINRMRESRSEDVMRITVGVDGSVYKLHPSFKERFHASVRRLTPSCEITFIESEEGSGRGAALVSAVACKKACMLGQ
Assay: In vitro glucokinase activity, G6PDH-coupled spectrophotometric assay
Assay type: biochemical
Settings: 5 mM D-glucose, 30° C.; for SC1.5 (concentration of activator that produced a 50% increase in the activity of GK): pH 7.1
Procedure: Glucokinase In Vitro Assay Protocol: Glucokinase (GK) was assayed by coupling the production of glucose-6-phosphate to the generation of NADH with glucose-6-phosphate dehydrogenase (G6PDH, 0.75-1 kunits/mg; Boehringer Mannheim, Indianapolis, Ind.) from Leuconostoc mesenteroides as the coupling enzyme (Scheme 2).
Recombinant human liver GK1 was expressed in E. coli as a glutathione S-transferase fusion protein (GST-GK) [Liang et al, 1995] and was purified by chromatography over a glutathione-Sepharose 4B affinity column using the procedure provided by the manufacturer (Amersham Pharmacia Biotech, Piscataway, N.J.).
The assay was conducted at 30° C. in a flat bottom 96-well tissue culture plate from Costar (Cambridge, Mass.) with a final incubation volume of 120 μL. The incubation reaction contained the following: 25 mM Hepes buffer (pH 7.1), 25 mM KCl, 5 mM D-glucose, 1 mM ATP, 1.8 mM NAD, 2 mM MgCl2, 1 μM sorbitol-6-phosphate, 1 mM dithiothreitol, test drug or 10% dimethylsulfoxide, ˜7 units/ml G6PDH, and GK (see below). All organic reagents were >98% pure and were from Boehringer Mannheim with the exceptions of D-glucose and Hepes which were from Sigma Chemical Co, St Louis, Mo. Test compounds were dissolved in dimethylsulfoxide and were added to the incubation reaction minus GST-GK in a volume of 12 μL to yield a final dimethylsulfoxide concentration of 10%. This mix was pre-incubated in the temperature controlled chamber of a SPECTRAmax 250 microplate spectrophotometer (Molecular Devices Corporation, Sunnyvale, Calif.) for 10 minutes to allow temperature equilibrium and then the reaction was started by the addition of 20 μL GST-GK.
After addition of enzyme, the increase in optical density (OD) at 340 nm was monitored spectrophotometrically to determine the rate of change (OD340 per min). The GK activity (OD340/min) in control wells (10% dimethylsulfoxide minus GK activators) was compared with the activity in wells containing test GK activators, and the concentration of activator that produced a 50% increase in the activity of GK, i.e., the SC1.5, was calculated.

Structure (SMILES) | SC1.5 (concentration of activator that produced a 50% increase in the activity of GK) | fold induction at 30 µM
O=C1C(=O)N(C(CC2CCCC2)C(=O)Nc2nccs2)c2ccc(Cl)cc21 (centres unmarked) [Example 92, 2-(5-Chloro-2,3-dioxo-2,3-dihydro-indol-1-yl)-3-cyclopentyl-N-thiazol-2-yl-propionamide] | 3.01 µM | –
O=C(Nc1nccs1)C(CC1CCCC1)N1C(=O)Cc2cc(Cl)ccc21 (centres unmarked) [Example 98, 2-(5-Chloro-2-oxo-2,3-dihydro-indol-1-yl)-3-cyclopentyl-N-thiazol-2-yl-propionamide] | 1.22 µM | –
COc1ccc2c(c1)C(=O)C(=O)N2C(CC(C)C)C(=O)Nc1ccccn1 (centres unmarked) [Example 54, 2-(5-Methoxy-2,3-dioxo-2,3-dihydro-indol-1-yl)-4-methyl-pentanoic acid pyridin-2-ylamide] | – | 1.49
CC(C)CC(C(=O)Nc1ccccn1)N1C(=O)C(=O)c2cc(Br)ccc21 (centres unmarked) [Example 69, 2-(5-Bromo-2,3-dioxo-2,3-dihydro-indol-1-yl)-4-methyl-pentanoic acid pyridin-2-ylamide] | 7.43 µM | –
O=C(Nc1cnccn1)C(CC1CCCC1)N1C(=O)Cc2ccccc21 (centres unmarked) [Example 2, 3-Cyclopentyl-2-(2-oxo-2,3-dihydro-indol-1-yl)-N-pyrazin-2-yl-propionamide] | 5.93 µM | –
COc1ccc2c(c1)C(=O)C(=O)N2C(CC(C)C)C(=O)Nc1nccs1 (centres unmarked) [Example 55, 2-(5-Methoxy-2,3-dioxo-2,3-dihydro-indol-1-yl)-4-methyl-pentanoic acid thiazol-2-ylamide] | – | 1.39
O=C1C(=O)N(C(CC2CCCC2)C(=O)Nc2ccccn2)c2cc(Cl)ccc21 (centres unmarked) [Example 118, 2-(6-chloro-2,3-dioxo-2,3-dihydro-indol-1-yl)-3-cyclopentyl-N-pyridin-2-yl-propionamide] | 0.23 µM | –
CS(=O)(=O)c1ccc2c(c1)N(C(CC1CCCC1)C(=O)Nc1nccs1)C(=O)C2 (centres unmarked) [Example 138, 3-Cyclopentyl-2-(6-methanesulfonyl-2-oxo-2,3-dihydro-indol-1-yl)-N-thiazol-2-yl-propionamide] | 2.94 µM | –
O=C1C(=O)N(C(CC2CCCC2)C(=O)Nc2cnccn2)c2ccc(OC(F)(F)F)cc21 (centres unmarked) [Example 29, 3-Cyclopentyl-2-(2,3-dioxo-5-trifluoromethoxy-2,3-dihydro-indol-1-yl)-N-pyrazin-2-yl-propionamide] | 1.5 µM | –
O=C(Nc1ccccn1)C(CC1CCCC1)N1C(=O)Cc2cc(OC(F)(F)F)ccc21 (centres unmarked) [Example 33, 3-Cyclopentyl-2-(2-oxo-5-trifluoromethoxy-2,3-dihydro-indol-1-yl)-N-pyridin-2-yl-propionamide] | 0.13 µM | –
CC(C)CC(C(=O)Nc1ccn(C)n1)N1C(=O)C(=O)c2cc(Cl)ccc21 (centres unmarked) [Example 104, 2-(5-Chloro-2,3-dioxo-2,3-dihydro-indol-1-yl)-4-methyl-pentanoic acid (1-methyl-1H-pyrazol-3-yl)-amide] | – | 1.21
Cc1ccc2c(c1)C(=O)C(=O)N2C(CC(C)C)C(=O)Nc1nccs1 (centres unmarked) [Example 87, 4-Methyl-2-(5-methyl-2,3-dioxo-2,3-dihydro-indol-1-yl)-pentanoic acid thiazol-2-ylamide] | – | 1.16
CC(C)(O)Cn1ccc(NC(=O)C(CC2CCCC2)N2C(=O)Cc3ccccc32)n1 (centres unmarked) [Example 59, 3-Cyclopentyl-N-[1-(2-hydroxy-2-methyl-propyl)-1H-pyrazol-3-yl]-2-(2-oxo-2,3-dihydro-indol-1-yl)-propionamide] | 3.87 µM | –
CC(C)CC(C(=O)Nc1nccs1)N1C(=O)Cc2cc(OC(F)(F)F)ccc21 (centres unmarked) [Example 41, 4-Methyl-2-(2-oxo-5-trifluoromethoxy-2,3-dihydro-indol-1-yl)-pentanoic acid thiazol-2-ylamide] | 2.81 µM | –
Cc1ccc2c(c1)CC(=O)N2C(CC(C)C)C(=O)Nc1nccs1 (centres unmarked) [Example 88, 4-Methyl-2-(5-methyl-2-oxo-2,3-dihydro-indol-1-yl)-pentanoic acid thiazol-2-ylamide] | 22.88 µM | –
CC(C)CC(C(=O)Nc1ccccn1)N1C(=O)Cc2c(Cl)cccc21 (centres unmarked) [Example 26, 2-(4-Chloro-2-oxo-2,3-dihydro-indol-1-yl)-4-methyl-pentanoic acid pyridin-2-ylamide] | 6.77 µM | –
Cn1ccc(NC(=O)C(CC2CCCC2)N2C(=O)C(=O)c3ccc(Cl)cc32)n1 (centres unmarked) [Example 119, 2-(6-Chloro-2,3-dioxo-2,3-dihydro-indol-1-yl)-3-cyclopentyl-N-(1-methyl-1H-pyrazol-3-yl)-propionamide] | 2.24 µM | –
O=C(Nc1nccs1)C(CC1CCCC1)N1C(=O)Cc2ccc(Cl)cc21 (centres unmarked) [Example 123, 2-(6-Chloro-2-oxo-2,3-dihydro-indol-1-yl)-3-cyclopentyl-N-thiazol-2-yl-propionamide] | 0.27 µM | –

The next lines start with the values.

SC1.5 (concentration of activator that produced a 50% increase in the activity of GK) | fold induction at 30 µM | Structure (SMILES)
4.85 µM | – | CC(C)CC(C(=O)Nc1cnccn1)N1C(=O)C(=O)c2ccc(Cl)cc21 (centres unmarked) [Example 112, 2-(6-Chloro-2,3-dioxo-2,3-dihydro-indol-1-yl)-4-methyl-pentanoic acid pyrazin-2-ylamide]
– | 1.16 | COc1ccc2c(c1)C(=O)C(=O)N2C(CC(C)C)C(=O)Nc1cnccn1 (centres unmarked) [Example 53, 2-(5-Methoxy-2,3-dioxo-2,3-dihydro-indol-1-yl)-4-methyl-pentanoic acid pyrazin-2-ylamide]
0.34 µM | – | O=C(Nc1cnccn1)C(CC1CCCC1)N1C(=O)Cc2ccc(Br)cc21 (centres unmarked) [Example 133, 2-(6-Bromo-2-oxo-2,3-dihydro-indol-1-yl)-3-cyclopentyl-N-pyrazin-2-yl-propionamide]
2.64 µM | – | CC(C)CC(C(=O)Nc1cnccn1)N1C(=O)Cc2ccc(Cl)cc21 (centres unmarked) [Example 113, 2-(6-Chloro-2-oxo-2,3-dihydro-indol-1-yl)-4-methyl-pentanoic acid pyrazin-2-ylamide]
– | 1.39 | CC(C)CC(C(=O)Nc1cnccn1)N1C(=O)C(=O)c2c(Cl)cccc21 (centres unmarked) [Example 17, 2-(4-Chloro-2,3-dioxo-2,3-dihydro-indol-1-yl)-4-methyl-pentanoic acid pyrazin-2-ylamide]
– | 1.32 | CC(C)CC(C(=O)Nc1cnccn1)N1C(=O)C(=O)c2cc(Br)ccc21 (centres unmarked) [Example 68, 2-(5-Bromo-2,3-dioxo-2,3-dihydro-indol-1-yl)-4-methyl-pentanoic acid pyrazin-2-ylamide]
– | 1.31 | COc1ccc2c(c1)CC(=O)N2C(CC(C)C)C(=O)Nc1cnccn1 (centres unmarked) [Example 58, 2-(5-Methoxy-2-oxo-2,3-dihydro-indol-1-yl)-4-methyl-pentanoic acid pyrazin-2-ylamide]
0.61 µM | – | Cc1ccc2c(c1)N(C(CC1CCCC1)C(=O)Nc1cnccn1)C(=O)C2 (centres unmarked) [Example 130, 3-Cyclopentyl-2-(6-methyl-2-oxo-2,3-dihydro-indol-1-yl)-N-pyrazin-2-yl-propionamide]
